Measurements published in patent publication US9556165B2 (priority 2012, dated 2017).
Converted amounts (≈) assume the structure as drawn.

How the values were obtained:
Type in all cases: cell-based
[1] = test system: A. baumannii ATCC15308; assay: MIC determination, broth microdilution (CLSI); settings: for MIC: Acinetobacter baumannii, ATCC15308, strain 9
[2] = test system: M. catarrhalis ICB489; assay: MIC determination, broth microdilution (CLSI); settings: for MIC: Moraxella catarrhalis, ICB489, strain 12
[3] = test system: K. pneumoniae 60; assay: MIC determination, broth microdilution (CLSI); settings: for MIC: Klebsiella pneumoniae, 60, strain 2
[4] = test system: strain 21; assay: MIC determination, broth microdilution (CLSI)
[5] = test system: P. aeruginosa 2297-con (AmpC derepressed); assay: MIC determination, broth microdilution (CLSI); settings: for MIC: Pseudomonas aeruginosa, read-out: strain 8 MIC, strain 8
[6] = test system: E. coli ATCC25922; assay: MIC determination, broth microdilution (CLSI); settings: for MIC: Escherichia coli, ATCC25922, strain 1
[7] = test system: C. perfringens DSM756; assay: microbe, parasite or virus in culture; settings: for MIC: Clostridium perfringens, DSM756, read-out: strain 16 MIC, strain 16
[8] = test system: H. influenzae ATCC 49247; assay: MIC determination, broth microdilution (CLSI); settings: for MIC: Haemophilus influenzae, ATCC49247, strain 13, read-out: strain 13 MIC
[9] = test system: S. maltophilia ICB7569; assay: MIC determination, broth microdilution (CLSI); settings: for MIC: Stenotrophomonas maltophilia, ICB7569, strain 10
[10] = test system: C. freundii K21/3034; assay: MIC determination, broth microdilution (CLSI); settings: for MIC: Citrobacter freundii, K21/3034, strain 4
[11] = test system: strain 20; assay: MIC determination, broth microdilution (CLSI)
[12] = test system: S. aureus 133; assay: MIC determination, broth microdilution (CLSI); settings: for MIC: Staphylococcus aureus, 133, strain 11, read-out: strain 11 MIC
[13] = test system: P. aeruginosa 2297 (AmpC wt); assay: MIC determination, broth microdilution (CLSI); settings: for MIC: Pseudomonas aeruginosa, strain 7
[14] = test system: P. aeruginosa PAO1; assay: MIC determination, broth microdilution (CLSI); settings: for MIC: Pseudomonas aeruginosa, PAO1, strain 6
[15] = test system: M. morganii 126/3048; assay: MIC determination, broth microdilution (CLSI); settings: for MIC: Morganella morganii, 126/3048, strain 5
[16] = test system: E. cloacae 34654; assay: MIC determination, broth microdilution (CLSI); settings: for MIC: Enterobacter cloacae, 34654, strain 3
[17] = test system: B. fragilis 6688; assay: MIC determination, broth microdilution (CLSI); settings: for MIC: Bacteroides fragilis, 6688, strain 15, read-out: strain 15 MIC
[18] = test system: E. coli J62-TEM-3; assay: MIC determination, broth microdilution (CLSI); settings: for MIC: Escherichia coli, J62TEM3, read-out: strain 18 MIC, strain 18
[19] = test system: strain 19; assay: MIC determination, broth microdilution (CLSI)
[20] = test system: E. coli J62; assay: MIC determination, broth microdilution (CLSI); settings: for MIC: Escherichia coli, J62, strain 17, read-out: strain 17 MIC
[21] = test system: S. pneumoniae 113; assay: MIC determination, broth microdilution (CLSI); settings: Streptococcus pneumoniae, 113, strain 14; read-out: strain 14 MIC

SMILES	strain 12 MIC [2]	strain 2 MIC [3]	strain 21 MIC [4] [µg/mL]	strain 1 MIC [6] [µg/mL]	strain 16 MIC [7] [µg/mL]	strain 13 MIC [8] [µg/mL]	strain 10 MIC [9] [µg/mL]	strain 4 MIC [10] [µg/mL]	strain 20 MIC [11]	strain 6 MIC [14] [µg/mL]	strain 5 MIC [15]	strain 3 MIC [16]	strain 19 MIC [19] [µg/mL]	strain 17 MIC [20] [µg/mL]	MIC [1] [µg/mL]	MIC [5] [µg/mL]	MIC [17] [µg/mL]	MIC [18] [µg/mL]	MIC [12] [µg/mL]	MIC [13] [µg/mL]	other results
CC1(C)[C@H](NC(=O)/C(=N\OC(COc2ccc(C(=N)N)cc2)C(=O)O)c2csc(N)n2)C(=O)N1OS(=O)(=O)O (mixture of isomers) [Example 27B, (2S and 2R)-2-({[(1Z)-1-(2-Amino-1,3-thiazol-4-yl)-2-{[(3S)-2,2-dimethyl-4-oxo-1-(sulfo-oxy)azetidin-3-yl]amino}-2-oxoethylidene]amino}oxy)-3-(4-carbamimidoylphenoxy)-propanoic acid]	0.25 µg/mL	1 µg/mL	2	2	32	0.5	8	1	2 µg/mL	16	1 µg/mL	4 µg/mL	1	2							strain 9 MIC [1]: 16 µg/mL; strain 8 MIC [5]: 16 µg/mL; strain 11 MIC [12]: 0.125 µg/mL; strain 7 MIC [13]: 32 µg/mL; strain 15 MIC [17]: 32 µg/mL; strain 18 MIC [18]: 8 µg/mL
CC1(C)[C@H](NC(=O)/C(=N\OC(COc2ccc(C(=N)N)c(O)c2)C(=O)O)c2csc(N)n2)C(=O)N1OS(=O)(=O)O (mixture of isomers) [Example 34A, (2S and 2R)-2-({[(1Z)-1-(2-Amino-1,3-thiazol-4-yl)-2-{[(3S)-2,2-dimethyl-4-oxo-1-(sulfo-oxy)azetidin-3-yl]amino}-2-oxoethylidene]amino}oxy)-3-(4-carbamimidoyl-3-hydroxyphenoxy)propanoic acid]	≦0.063 mg/L	1 µg/mL	0.5	1	2	0.5	8	1	0.5 µg/mL	8	0.25 µg/mL	0.5 µg/mL	0.5	1	32	16	16	32			strain 11 MIC [12]: ≦0.063 mg/L; strain 7 MIC [13]: 8 µg/mL
CC1(C)[C@H](NC(=O)/C(=N\OC(COc2ccc(C(=N)N)nc2)C(=O)O)c2csc(N)n2)C(=O)N1OS(=O)(=O)O (mixture of isomers) [Example 36A, (2S and 2R)-2-({[(1Z)-1-(2-Amino-1,3-thiazol-4-yl)-2-{[(3S)-2,2-dimethyl-4-oxo-1-(sulfo-oxy)azetidin-3-yl]amino}-2-oxoethylidene]amino}oxy)-3-[(6-carbamimidoylpyridin-3-yl)oxy]propanoic acid]	≦0.063 mg/L	≦0.063 mg/L	0.125	0.125	2	0.5	2	0.125	≦0.063 mg/L	4	≦0.063 mg/L	≦0.063 mg/L	0.125	0.125					≤ 0.063	4	strain 9 MIC [1]: 4 µg/mL; strain 8 MIC [5]: 4 µg/mL; strain 15 MIC [17]: 8 µg/mL; strain 18 MIC [18]: 8 µg/mL
CC1(C)[C@H](NC(=O)/C(=N\OCCOc2ccc(C(=N)N)nc2)c2csc(N)n2)C(=O)N1OS(=O)(=O)O [Example 4, (2Z)-2-(2-Amino-1,3-thiazol-4-yl)-2-({2-[(6-carbamimidoylpyridin-3-yl)oxy]ethoxy}imino)-N-[(3)-2,2-dimethyl-4-oxo-1-(sulfooxy)azetidin-3-yl]ethanamide]															1 (≈ 1.84 µM)	8 (≈ 14.7 µM)	2 (≈ 3.69 µM)	8 (≈ 14.7 µM)	≤ 0.063	16 (≈ 29.5 µM)	MIC [21]: 16 µg/mL (≈ 29.5 µM); MIC [2]: ≤ 0.063 µg/mL; MIC [3]: 0.25 µg/mL (≈ 0.461 µM); MIC [4]: 0.25 µg/mL (≈ 0.461 µM); MIC [6]: 0.125 µg/mL (≈ 0.23 µM); MIC [7]: 2 µg/mL (≈ 3.69 µM); MIC [8]: ≤ 0.063 µg/mL; MIC [9]: 4 µg/mL (≈ 7.37 µM); MIC [10]: 0.125 µg/mL (≈ 0.23 µM); MIC [11]: 0.25 µg/mL (≈ 0.461 µM); MIC [14]: 4 µg/mL (≈ 7.37 µM); MIC [15]: 0.25 µg/mL (≈ 0.461 µM); MIC [16]: 0.5 µg/mL (≈ 0.922 µM); MIC [19]: 0.125 µg/mL (≈ 0.23 µM); MIC [20]: 0.25 µg/mL (≈ 0.461 µM)
N=C(N)c1ccc(OCCO/N=C(\C(=O)NC2C(=O)N(OS(=O)(=O)O)C23CCCC3)c2csc(N)n2)cc1 (centres unmarked) [Example 16, (2Z)-2-(2-Amino-1,3-thiazol-4-yl)-2-{[2-(4-carbamimidoylphenoxy)ethoxy]imino}-N-[2-oxo-1-(sulfooxy)-1-azaspiro[3.4]oct-3-yl]ethanamide]															4 (≈ 7.05 µM)	32 (≈ 56.4 µM)	8 (≈ 14.1 µM)	4 (≈ 7.05 µM)	≤ 0.063	32 (≈ 56.4 µM)	MIC [2]: 1 µg/mL (≈ 1.76 µM); MIC [3]: 1 µg/mL (≈ 1.76 µM); MIC [4]: 1 µg/mL (≈ 1.76 µM); MIC [6]: 1 µg/mL (≈ 1.76 µM); MIC [7]: 4 µg/mL (≈ 7.05 µM); MIC [8]: ≤ 0.063 µg/mL; MIC [9]: 8 µg/mL (≈ 14.1 µM); MIC [10]: 2 µg/mL (≈ 3.52 µM); MIC [11]: 1 µg/mL (≈ 1.76 µM); MIC [14]: 32 µg/mL (≈ 56.4 µM); MIC [15]: 0.5 µg/mL (≈ 0.881 µM); MIC [16]: 1 µg/mL (≈ 1.76 µM); MIC [19]: 1 µg/mL (≈ 1.76 µM); MIC [20]: 2 µg/mL (≈ 3.52 µM)
